The values below come from article PMC6368365, “Didehydro-Cortistatin A Inhibits HIV-1 by Specifically Binding to the Unstructured Basic Region of Tat” (mBio, 2019).

Like-named read-outs stand apart in the source and are kept apart here.

Data set [1] concerns Tat transactivation activity. The experiment in a line: Transactivation assay (luciferase) in HeLa-CD4-LTR-Luc cells transfected with FLAG-Tat. The note with it: 25 nM, 48 h. It counts as cell-based, HIV-1. As to the method: Supplementary file : FIG S9 Tat-TAR interaction blocked by dCA in HeLa-CD4-LTR-Luc cells. (A) Transactivation assays. HeLa-CD4-LTR-Luc cells, transfected with Tat or Tat Mut, were incubated with the indicated compounds (dCA and raltegravir [“Ralt.”], 25 nM) or DMSO. Forty-eight hours later, cells were lysed and cross-linked, and luciferase activity relative to the Bradford assay or ChIP TAR RNA (Fig. 6D) was determined. Data are the mean ± SD from n = 3 independent experiments. (B) Western blot of the amount of FLAG-Tat bound to FLAG-tagged beads after elution of the samples for ChIP TAR RNA, as control input. The input of FLAG-Tat and GAPDH as a loading control. Data are representative of n = 3 independent experiments. Statistical significance was determined using one-way ANOVA with post hoc Tukey’s test, comparing DMSO to the other conditions. ***, P < 0.0001. Download FIG S9, PDF file, 0.2 MB.
Chromatin was immunoprecipitated with an anti-FLAG antibody, and qRT-PCR was performed to detect the presence of chromatin-coding TAR (Fig. 6D).
Chromatin immunoprecipitation assay (CHIP). HeLa-CD4-LTR-Luc cells (4×10^6) were transfected with different constructs (PGK-FLAG Tat and PGK-FLAG Tat Mut). […] The relative proportions of co-immunoprecipitated DNA were determined on the basis of the threshold cycle for qRT-PCR. […]

A further data set deals with HIV. Also noted: method as in PMID 29045830. The note with it: dCA added to ART-suppressed mice; cited from earlier work.
The subject of another data set is NL4-3 strain. The experiment in a line: HIV-1 NL4-3 infection of HeLa-CD4-LTR-LacZ reporter cells, LacZ measured 72 h later. It counts as cell-based. The note with it: Human immunodeficiency virus 1, NL43. From the text: To understand the structure-function relationship of the dCA molecule with respect to our structural model, we synthesized and characterized the ability of 11 analogs of dCA to inhibit HIV infection (Table 2). […] We used HeLa-CD4 cells stably expressing the HIV-1 5′ LTR driving β-galactosidase production (HeLa-CD4-LTR-LacZ cells) as a reporter for the infection with isolate NL4-3. Table 2 summarizes the IC50, 50% cytotoxic concentration (CC50), and therapeutic index (TI) for each compound. The loss of dCA activity was directly associated with the positioning and the chemical environment of the azote on the F ring and the presence of oxygen in ring B. Moreover, the E-F “skeleton angle” and the distance between the A-B-C-D and F rings affected the activity by more than 50-fold (analogs 7 and 10).
The activity of Tat in HeLa-CD4-LTR-Luc and OM10.1 cells was verified by a transactivation assay as described in reference. In HeLa-CD4-LTR-LacZ cells, the assay was performed as described in reference. A detailed protocol is provided in Text S1.
Transactivation assay. In HeLa-CD4-LTR-Luc cells and OM10.1 cells. The activity of Tat was verified by a transactivation assay as previously reported (13). Briefly, HeLa-CD4-LTR-Luc cells and OM10.1 were plated at 1×10^5 and 8x10^5 cells per well of a 6-well plate respectively. The following day, recombinant Tat protein was added to the cells in culture media without serum and in the presence of 100 μM of Chloroquine. Five hours later, serum was added at 5 % to the culture media. Cells were lysed 24 hrs later, protein concentration determined by Bradford assay and luciferase activity was measured for HeLa-CD4-LTR-Luc cells. Results corresponding to luciferase activity per protein concentration of each sample are shown as relative light unit (RLU). As for the OM10.1 cells, RNA was extracted using the RNA extraction kit (Qiagen) and DNA contamination was removed using Turbo-DNAse kit (Ambion). First-strand cDNA was synthesized using SuperscriptIII^TM first-strand cDNA kit (Invitrogen) and random hexamers as first-strand primers. qRT-PCR was performed with an aliquot of cDNA as template, using LightCycler? 480 SYBR Green I Master in a 20 µL reaction according to the manufacturer’s instructions. The mRNAs from each sample were used as negative control. Primer sequences for GAPDH (13) and all viral mRNAs as previously described (59). In HeLa-CD4-LTR-LacZ cells. It was performed as previously described (10). Briefly, cells were plated at 1×10^4 cells per well of a 96-well plate. Twenty-four hrs later HIV-1 NL4-3 strain was added in the presence of testing compound or DMSO. Seventy-two hrs post infection, cells were disrupted in lysis buffer (60 mM Na2HPO4, 40 mM NaH2PO4, 10 mM KCl, 10 mM MgSO4, 2.5 mM EDTA, 50 mM ß-mercaptoethanol, 0.125 % Nonidet P-40) and a quantitative chlorophenol red-ß-D-galactopyranoside (CPRG)-based (Boehringer Mannheim) assay was performed. The cell extracts were incubated in a reaction buffer (0.9 M phosphate buffer [pH 7.4], 9 mM MgCl2, 11 mM ß-mercaptoethanol, 7 mM CPRG) until a red color developed and measured with an LP400 (Becton Dickinson) plate reader at 572 nm.

The conditions of data set [2]: in vivo; cited from earlier work.

In the case of `CN(C)C1CC23CCC4(O2)C(=CCC2(C)C(c5ccc6ccncc6c5)=CCC24)C=C3C(O)C1O` (centres unmarked) [dCA, didehydro-cortistatin A], the “Tat transactivation activity (luciferase), transfected FLAG-Tat” value in data set [1] was “inhibited Tat transactivation activity”. In the data set on HIV, the in vivo efficacy result is “systemically reduced viral mRNA in tissues and significantly delayed and reduced viral rebound levels upon treatment interruption”. Moreover, the IC50 in the data set on NL4-3 strain (HeLa-CD4-LTR-LacZ cells infected with NL4-3, LacZ at 72 h, mean ± SD, n = 2 to 3, read-out: IC50) is 0.6 ± 0.3 nM; in the data set with NL4-3 strain (span of Table 2 and earlier value, read-out: dCA inhibitory activity in cell-based assays) it was 0.6 to 2 nM. Besides, the “penetration of viral sanctuaries” value in data set [2] is given as “penetrates viral sanctuaries such as the brain”.
